Assay results reported in US10759783B2, “Biaryl inhibitors of Bruton'S tyrosine kinase” (BIOGEN MA INC., priority 2013, dated 2020).

Columns and labels:
[1] = biological target: T1, BTK enzyme (Homo sapiens, UniProt Q06187); assay: In vitro BTK kinase assay: BTK-POLYGAT-LS assay; assay type: biochemical; conditions: ATP 10 μM, read-out: IC50 (10uMATP)
T1 construct: purchased Upstate 14-552
In short: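 Human BTK activity was measured with final 10 μM ATP and 100 nM polyGAT substrate in pH 7.5 Tris buffer with 10 mM MgCl2, DTT, Triton X-100 and casein.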

[2] = biological target: BTK (phospho-BTK) in human whole blood (Homo sapiens, UniProt Q06187); assay: In vitro PD assay in human whole blood (pBTK assay)
BTK (phospho-BTK) in human whole blood, sequence (Q06187 whole entry): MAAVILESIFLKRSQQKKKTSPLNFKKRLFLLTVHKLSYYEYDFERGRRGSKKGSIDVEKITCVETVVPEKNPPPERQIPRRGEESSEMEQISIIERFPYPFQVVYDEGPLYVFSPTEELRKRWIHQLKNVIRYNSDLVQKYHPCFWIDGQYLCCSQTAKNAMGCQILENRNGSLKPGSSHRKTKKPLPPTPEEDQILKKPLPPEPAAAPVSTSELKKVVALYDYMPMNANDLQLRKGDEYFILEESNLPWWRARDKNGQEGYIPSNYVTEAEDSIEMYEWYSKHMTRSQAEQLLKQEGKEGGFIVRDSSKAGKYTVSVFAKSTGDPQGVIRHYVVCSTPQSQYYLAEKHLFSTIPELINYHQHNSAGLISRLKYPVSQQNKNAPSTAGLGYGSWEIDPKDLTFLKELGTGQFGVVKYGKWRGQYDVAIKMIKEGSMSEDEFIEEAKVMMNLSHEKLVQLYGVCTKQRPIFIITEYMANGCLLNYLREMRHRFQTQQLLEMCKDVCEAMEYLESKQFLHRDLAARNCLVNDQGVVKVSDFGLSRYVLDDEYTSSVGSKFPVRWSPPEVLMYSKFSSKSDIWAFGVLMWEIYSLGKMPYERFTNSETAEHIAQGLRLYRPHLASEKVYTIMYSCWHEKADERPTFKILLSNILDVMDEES

T1 sequence (Q06187 whole entry): as above

Row | IC50 [1] [nM] | IC50 [2] [nM] | SMILES
1 | < 10 | < 500 | Cc1cc(-c2ccnc(Nc3cnn(C4CCN(C)CC4)c3)n2)ccc1CNC(=O)c1cnc(C(C)(C)C)s1 [Example I-46, 2-(tert-butyl)-N-(2-methyl-4-(2-((1-(1-methylpiperidin-4-yl)-1H-pyrazol-4-yl)amino)pyrimidin-4-yl)benzyl)thiazole-5-carboxamide]
2 | < 10 | < 500 | Cc1cc(-c2ccnc(Nc3cnn(CCO)c3)n2)ccc1CNC(=O)c1cnc(C(C)(C)C)s1 [Example I-37, 2-(tert-butyl)-N-(4-(2-((1-(2-hydroxyethyl)-1H-pyrazol-4-yl)amino)pyrimidin-4-yl)-2-methylbenzyl)thiazole-5-carboxamide]
3 | < 10 | < 500 | CC(C)n1cc(Nc2nccc(-c3ccc(CNC(=O)N4CCC(C(C)(C)C)C4)c(C(F)(F)F)c3)n2)cn1 (stereo not shown) [Example I-293, 3-tert-butyl-N-[[4-[2-[(1-isopropylpyrazol-4-yl)amino]pyrimidin-4-yl]-2-(trifluoromethyl)phenyl]methyl]pyrrolidine-1-carboxamide]
4 | < 10 | < 500 | CN1CC[C@@H](n2cc(Nc3nccc(-c4ccc(CNC(=O)N5CCC(C(C)(C)C)C5)c(C(F)(F)F)c4)n3)cn2)C1 (stereo partly drawn) [Example I-208, 3-(tert-butyl)-N-(4-(2-((1-((R)-1-methylpyrrolidin-3-yl)-1H-pyrazol-4-yl)amino)pyrimidin-4-yl)-2-(trifluoromethyl)benzyl)pyrrolidine-1-carboxamide]
5 | < 10 | < 500 | CC(C)C1CCN(C(=O)NC2CCCCc3cc(-c4ccnc(Nc5cnn([C@@H]6CCOC6)c5)n4)ccc32)C1 (stereo partly drawn) [Example I-344, 3-isopropyl-N-[2-[2-[[1-[(3R)-tetrahydrofuran-3-yl]pyrazol-4-yl]amino]pyrimidin-4-yl]-6,7,8,9-tetrahydro-5H-benzo[7]annulen-5-yl]pyrrolidine-1-carboxamide]
6 | < 10 | < 500 | Cc1cc(-c2cc(Nc3cc4c(cn3)CN(CCO)CC4)ncn2)ccc1CNC(=O)c1cnc(C(C)(C)C)s1 [Example I-268, 2-tert-butyl-N-[[4-[6-[[7-(2-hydroxyethyl)-6,8-dihydro-5H-2,7-naphthyridin-3-yl]amino]pyrimidin-4-yl]-2-methyl-phenyl]methyl]thiazole-5-carboxamide]
7 | < 10 | 500 to 1500 | Cc1cc(-c2cc(Nc3ccn(C)n3)ncn2)ccc1CNC(=O)c1cnc(C(C)(C)C)s1 [Example I-66, 2-(tert-butyl)-N-(2-methyl-4-(6-((1-methyl-1H-pyrazol-3-yl)amino)pyrimidin-4-yl)benzyl)thiazole-5-carboxamide]
8 | < 10 | 1500 to 10000 | Cc1cc(-c2ccnc(Nc3cnn(C)c3)n2)ccc1CNC(=O)c1cc2c(s1)CCOC2 [Example I-3, N-(2-methyl-4-(2-((1-methyl-1H-pyrazol-4-yl)amino)pyrimidin-4-yl)benzyl)-6,7-dihydro-4H-thieno[3,2-c]pyran-2-carboxamide]
9 | < 10 | < 500 | CC(C)OC1CN(C(=O)NC2CCCc3cc(-c4ccnc(Nc5cnn(C6CCN(C)CC6)c5)n4)ccc32)C1 (stereo not shown) [Example I-326, 3-isopropoxy-N-[6-[2-[[1-(1-methyl-4-piperidyl)pyrazol-4-yl]amino]pyrimidin-4-yl]tetralin-1-yl]azetidine-1-carboxamide]
10 | < 10 | 500 to 1500 | Cc1cc(-c2ccnc(Nc3cnn(C[C@H](N)CO)c3)n2)ccc1CNC(=O)c1cnc(C(C)(C)C)s1 [Example I-131, (S)—N-(4-(2-((1-(2-amino-3-hydroxypropyl)-1H-pyrazol-4-yl)amino)pyrimidin-4-yl)-2-methylbenzyl)-2-(tert-butyl)thiazole-5-carboxamide]
11 | < 10 | < 500 | Cc1cc(-c2cc(Nc3cc4n(n3)CCCNC4)ncn2)ccc1CNC(=O)c1cnn(C(C)(C)C)c1 [Example I-234, 1-(tert-butyl)-N-(2-methyl-4-(6-((5,6,7,8-tetrahydro-4H-pyrazolo[1,5-a][1,4]diazepin-2-yl)amino)pyrimidin-4-yl)benzyl)-1H-pyrazole-4-carboxamide]
